Ten substances from US20130296224A1, “METHOD FOR TREATMENT OF INFLAMMATORY DISEASE AND DISORDER” (HealOr Ltd., priority 2011, published 2013) can be followed below.

The star is where a group is joined. Palmitoyl = CCCCCCCCCCCCCCCC(=O)*; Myristoyl = CCCCCCCCCCCCCC(=O)*

The subject of one test is activated keratinocytes. Nature of the test: Cytokine secretion in LPS, TNFα or IL-17 activated keratinocytes treated with peptide PKCα inhibitors (ELISA). The test is classed as cell-based, BALB/C mice. The following applies: for cytokine secretion from LPS and TNFα activated keratinocytes: FIGS. 19 to 23; for cytokine secretion from IL-17A activated keratinocytes: FIGS. 24 to 27; for cytokine secretion in keratinocytes stimulated by LPS, TNFα, or IL-17: medium collected after 48 hr, ELISA. The procedure: To determine their effects, keratinocytes were derived from newborn BALB/C mice skin. The cells were incubated for 5 days in 24 wells plate. Cells were then incubated with PBS −/− as control or stimulated by LPS, TNFα, or IL-17. PKCα inhibitors were added as indicated. Medium containing secreted cytokines was collected after 48 hr and analyzed using ELISA. FIG. 50 is a tabular summary of cytokine secretion.
In general terms: ELISA stands for enzyme-linked immunosorbent assay.

The next test has as its system macrophages (Iba-1). Nature of the test: Macrophage infiltration in skin wound (Iba-1 staining). The test is classed as in vivo, C57BL/6J mouse. The following applies: daily treatment, five days post-wounding. The procedure:
The effect of MPDY-1 on macrophage infiltration was also shown by Iba-1 staining. Iba-1 is a general marker for macrophages. […] As above, a two-cm longitudinal incision was done on the upper back of a C57BL/6J mouse. Following wounding, a sterile pad was sutured to the mouse's skin. Animals were treated daily with MPDY-1 (n=6). Five days post-wounding, when inflammatory phase reaches its peak, the mice were sacrificed, skin tissues were embedded in paraffin and immunohistochemical staining was performed utilizing anti-Iba-1 antibodies.

Test [1] has as its system activated macrophages (MAC-2). Description: Macrophage activation in skin wound (MAC-2 staining). The test is classed as in vivo, C57BL/6J mouse. The following applies: daily treatment, 5 days; control vs 10 μg p=0.0028. The procedure: The effect of MPDY-1 on macrophage activation was also shown by MAC-2 staining. MAC-2 is a specific marker for activated macrophages. […] A two-cm longitudinal incision was done as described above. Animals were treated daily with DPBS^−/− (Control) or MPDY-1 in the specified concentrations (n=6). After 5 days immunohistochemical staining was performed utilizing anti-MAC-2 antibodies. Bar […]. (*p(control Vs. MPDY-1 10 μg)=0.0028).

Test [2] deals with histamine induced pruritus. Nature of the test: Histamine prick test model of pruritus. In kind it is in vivo, healthy volunteers. The following applies: topical application on forearm, photographs at 0, 10, 20, 30 minutes. The procedure:
Forearms of individual subjects were injected with histamine solution and placebo. The formulation of Example 4 was topically applied with MPDY-1 at various concentrations and pruritus was assessed over a time course as shown in FIGS. 39-42.
This test was performed by placing a drop of a solution containing a possible allergen on the skin, and a series of scratches or needle pricks allow the solution to enter the skin. The extract enters into the outer layer of the skin (epidermis) using a fine needle (such as a. 26G disposable needle). This testing is not painful, and generally there is no bleeding involved since the needle only scratches the surface of the skin. If the skin develops a red, raised itchy area (called a wheal), it is as a result of allergic reaction to that allergen. This is called a positive reaction. A drop of extract is introduced through a fine needle (such as a No. 26 disposable needle). The test causes no discomfort and minimal trauma so that controls and negative test show only the site of the prick; if anything.
26G needles were utilized to introduce histamine stock (Histatrol Positive Control Histamine, 1 mg/ml, code #HIST14999V, Trupharm). The test was conducted on healthy volunteers in a double-blind, randomized test. The formulations were applied on the forearms. […]

The subject of a further test is IKK. Nature of the test: TNFα induced IKK activation in keratinocytes (Western blot phospho-IKKa/b Ser176/180). The following applies: 1 hour pretreatment, TNFα 35 ng/ml 15 minutes. In kind it is cell-based, Murine. The procedure:
Murine primary keratinocytes were grown for 4 days to full confluence in Low Ca^+2 MEM. Cells were pretreated with designated concentration of MPDY-1 as described in the figure for 1 hour, prior to TNFα induction. Following MPDY-1 pretreatment, cells were incubated with TNFα 35 ng/ml for 15 minutes. Reaction was stopped by adding ice-cold dPBS−/− and keratinocytes were homogenized in RIPA buffer. Samples were subjected to SDS PAGE Western Blot analysis, utilizing phospho-IKKa/b (Ser176/180 antibody).

Another test deals with EAE mice. Nature of the test: Experimental allergic encephalomyelitis (EAE), MOG35-55/CFA immunized mice. Details: EAE severity / average group score at the end of the experiment (day 42): dose or concentration left out as unconfirmed. The following applies: for EAE score on the initial day (in brackets): scale 0-6; for Score on day 29 / Score on day 37 / Score on day 18: EAE scale 0-6; for Number of dead mice during 49 days: n=7 per group. In kind it is in vivo, C57BL/6J mice.

The test system of test [3] is splenocytes stimulated with LPS. Description: Cytokine secretion in splenocytes stimulated with LPS, treated with PKCδ activator. The test is classed as cell-based. On the procedure: (§1) PKCδ activators were also shown to have an anti-inflammatory effect on keratinocytes and splenocytes. Keratinocytes were derived from newborn BALB/C mice skin. The cells were incubated for 5 days in 24 wells plate. Cells were then incubated with PBS−/− as control or stimulated by LPS or TNFα. The PKCδ inhibitor DAP-1 (SEQ ID NO: 34) was added. Medium containing secreted cytokines was collected after 48 hr and analyzed using ELISA. FIG. 43 is a tabular summary showing cytokine secretion in splenocytes stimulated with LPS. FIG. 44 is a tabular summary of cytokine secretion in keratinocytes stimulated by TNFα.

In test [4] the test system is keratinocytes stimulated by TNFα. Description: Cytokine secretion in stimulated keratinocytes treated with PKCδ activator (ELISA). In kind it is cell-based, BALB/C mice. The following applies: medium collected after 48 hr. The procedure:
as §1

[5] abbreviates: 0.1 mg/kg i.p. three times a week.
Where [6] appears, read: 1 mg/kg i.p. three times a week.

Consider “Myristoyl-Phe-Ala-Arg-Lys-Gly-Ala-Leu-OH (Myristoyl-FARKGAL-OH; SMILES CCCCCCCCCCCCCC(=O)N[C@@H](Cc1ccccc1)C(=O)N[C@@H](C)C(=O)N[C@@H](CCCNC(=N)N)C(=O)N[C@@H](CCCCN)C(=O)NCC(=O)N[C@@H](C)C(=O)N[C@@H](CC(C)C)C(=O)O) [MPDY-1 sh]”, for which, in the test on activated keratinocytes, the “cytokine secretion from LPS and TNFα activated keratinocytes” value was “decrease cytokine secretion”; the “cytokine secretion from IL-17A activated keratinocytes” value is on record as “decrease cytokine secretion”.
In the case of “Myristoyl-Phe-Ala-Arg-Lys-Gly-Ala-Leu-Arg-Gln-OH (Myristoyl-FARKGALRQ-OH; SMILES CCCCCCCCCCCCCC(=O)N[C@@H](Cc1ccccc1)C(=O)N[C@@H](C)C(=O)N[C@@H](CCCNC(=N)N)C(=O)N[C@@H](CCCCN)C(=O)NCC(=O)N[C@@H](C)C(=O)N[C@@H](CC(C)C)C(=O)N[C@@H](CCCNC(=N)N)C(=O)N[C@@H](CCC(N)=O)C(=O)O) [MPDY-1]”, the “macrophage infiltration (Iba-1 positive cells per field)” value in the test with macrophages (Iba-1) is recorded as “dose dependent effect”. Moreover, the “activation of macrophages (MAC-2 positive cells per field)” value in test [1] is given as “significantly inhibited”. Moreover, in test [2], the “redness, inflammation and pruritus compared with control over the time course” value was “significantly attenuated redness, inflammation and pruritus”. Also, in the test with activated keratinocytes, the “cytokine secretion from LPS and TNFα activated keratinocytes” value was “decrease cytokine secretion”; the “cytokine secretion from IL-17A activated keratinocytes” value is “decrease cytokine secretion”; the “cytokine secretion in keratinocytes stimulated by LPS, TNFα, or IL-17” value (from here on “cytokine secretion … or IL-17”) is listed as “effective in decreasing cytokine secretion”. Moreover, in the test on IKK, the “TNFα induced IKK activation in keratinocytes” value is reported as “significantly reduced” and the “concentration exhibiting the strongest inhibition of IKK activation (lowest tested)” value was 0.1 mg/mL. Also, the EAE severity entry in the test with EAE mice is given as “reduced EAE severity”. Besides, the “EAE score / clinical symptoms compared to the control group” value in the test on EAE mice (0.1 mg/kg) is on record as “lower score during most of the experiment days”. Besides, in the test with EAE mice (setting [5]), the “The initial day (first illness signs)” value came out at 13 days and the “EAE score on the initial day (in brackets)” value (“EAE score on the initial day” below) turned out to be 1.000. In the test with EAE mice (0.1 mg/kg i.p.), the “Score on day 29” value stood at 2.000 and the “Score on day 37” value is 1.500. Also, in the test with EAE mice (setting [6]), the “The initial day (first illness signs)” value amounted to 11 days. Also, in the test with EAE mice (1 mg/kg i.p.), the “Number of dead mice during 49 days” value is given as 2 and the “EAE score on the initial day” value is 0.214.
Consider “H-Phe-Ala-Arg-Lys-Gly-Ala-Leu-Arg-Gln-OH (H-FARKGALRQ-OH) [AWOT-1]”, for which the “cytokine secretion … or IL-17” value in the test on activated keratinocytes is recorded as “effective in decreasing cytokine secretion”.
For the substance “H-Thr-Leu-Asn-Pro-Gln-Trp-Glu-Ser-OH (H-TLNPQWES-OH) [AIP-1]”, the “cytokine secretion … or IL-17” value in the test with activated keratinocytes is “effective in decreasing cytokine secretion”.
With “Palmitoyl-Phe-Ala-Arg-Lys-Gly-Ala-Leu-Arg-Gln-OH-acetate salt (Palmitoyl-FARKGALRQ-OH; also: acetate salt) [PPDY-1]”, the “cytokine secretion … or IL-17” value in the test on activated keratinocytes is “effective in decreasing cytokine secretion”.
“Myristoyl-Phe-Ala-Arg-Lys-Gly-Ala-Leu-OH-trifluoracetate salt (Myristoyl-FARKGAL-OH; also: trifluoracetate salt) [AIP-2]”: the “cytokine secretion … or IL-17” value in the test with activated keratinocytes was “effective in decreasing cytokine secretion”.
Turning to “Myristoyl-Thru-Arg-Lys-Arg-Gln-Arg-Ala-Met-Arg-Arg-Arg-Val-His-Gln-Ile-Asn-Gly-OH (Myristoyl-TRKRQRAMRRRVHQING-OH; SMILES CCCCCCCCCCCCCC(=O)N[C@H](C(=O)N[C@@H](CCCNC(=N)N)C(=O)N[C@@H](CCCCN)C(=O)N[C@@H](CCCNC(=N)N)C(=O)N[C@@H](CCC(N)=O)C(=O)N[C@@H](CCCNC(=N)N)C(=O)N[C@@H](C)C(=O)N[C@@H](CCSC)C(=O)N[C@@H](CCCNC(=N)N)C(=O)N[C@@H](CCCNC(=N)N)C(=O)N[C@@H](CCCNC(=N)N)C(=O)N[C@H](C(=O)N[C@@H](Cc1c[nH]cn1)C(=O)N[C@@H](CCC(N)=O)C(=O)N[C@H](C(=O)N[C@@H](CC(N)=O)C(=O)NCC(=O)O)[C@@H](C)CC)C(C)C)[C@@H](C)O) [MPE-1]”, in the test with EAE mice, the EAE severity result is recorded as “reduced EAE severity”. In the test on EAE mice (setting [5]), the “The initial day (first illness signs)” value stood at 11 days and the “EAE score on the initial day” value turned out to be 0.429. Further, the “The initial day (first illness signs)” value with EAE mice (setting [6]) is 10 days. In the test on EAE mice (1 mg/kg i.p.), the “Number of dead mice during 49 days” value worked out at 4 and the “EAE score on the initial day” value was 0.429. Also, the “average group score at the end of the experiment (day 42)” value in the test on EAE mice (control group 2.86) stood at 2.00.
For the substance “H-Phe-Ala-Arg-Lys-Gly-Ala-Leu-Arg-Gln-OH-acetate salt (H-FARKGALRQ-OH; also: acetate salt) [PDY-1]”, in the test on activated keratinocytes, the “cytokine secretion from LPS and TNFα activated keratinocytes” value is “decrease cytokine secretion”; the “cytokine secretion from IL-17A activated keratinocytes” value is “decrease cytokine secretion”.
As for “H-His-Phe-Glu-Asp-Trp-Ile-Asp-His-Phe-Glu-Asp-Trp-Ile-Asp-OH (H-HFEDWIDHFEDWID-OH) [DAP-1]”, the “inflammatory cytokine secretion in splenocytes” value in test [3] is listed as “significantly decease inflammatory cytokine secretion”. Also, the “inflammatory cytokine secretion in keratinocytes” value in test [4] is listed as “significantly decease inflammatory cytokine secretion”.
As for “CRAMP: comparison treatment in the EAE study (0.2 and 2 mg/kg); not further described (ISRLAGLLRKGGEKIGEKLKKIGQKIKNFFQKLVPQPE; Cathelin-related antimicrobial peptide; UniProt P51437 135-172, looked up) [reference compound]”, in the test with EAE mice (0.2 mg/kg i.p. three times a week), the “The initial day (first illness signs)” value came to 10 days. In the test on EAE mice (0.2 mg/kg i.p.), the “Score on day 18” value is listed as 3.214, the “Score on day 29” value is 2.000, the “Score on day 37” value turned out to be 2.571 and the “Number of dead mice during 49 days” value turned out to be 2. Also, the “EAE score on the initial day” value in the test on EAE mice (0.2 mg/kg i.p.) turned out to be 0.571. Moreover, the “The initial day (first illness signs)” value with EAE mice (2 mg/kg i.p. three times a week) turned out to be 11 days. In the test on EAE mice (2 mg/kg i.p.), the “Score on day 18” value is on record as 2.643, the “Score on day 29” value is 2.643, the “Score on day 37” value was found to be 2.143 and the “Number of dead mice during 49 days” value is 2. Besides, the “EAE score on the initial day” value in the test with EAE mice (2 mg/kg i.p.) is reported as 0.143.
